Paper PMC6222357, “Liquid Chromatography-Tandem Mass Spectrometry Simultaneous Determination and Pharmacokinetic Study of Fourteen Alkaloid Components in Dog Plasma after Oral Administration of Corydalis bungeana Turcz Extract” (Molecules : A Journal of Synthetic Chemistry and Natural …, 2018)

Legend:
[1] = Stability of the analytes in beagle plasma QC samples under different storage conditions; format: physicochemical, beagle dog; details: n = 6; for Stability (% RE) Long-Term: 2 weeks at −80 °C; for Stability (% RE) Short-Term: 4 h at ambient temperature; for Stability (% RE) Freeze-Thaw: three freeze (−80 °C)-thaw cycles; for Stability (% RE) Post-Preparative: 12 h after sample preparation at 4 °C
Procedure: As illustrated in Table 4. The stability of QC samples at three evaluated concentrations contained low, medium and high under different stored conditions was assessed on the basis of peak areas in comparison with freshly prepared QC sample.
(§1) The stability of the fourteen analytes in beagle dogs investigated by analyzing QC samples of each analyte at three QC levels (LQC, MQC and HQC) and each level contained six replicates. The short-term stability was assessed during storage for 4 h at ambient temperature. The long-term stability was determined after the QC samples had been stored for 2 weeks at −80 °C. The freeze-thaw stability was determined after three freeze at −80 °C and thaw cycles. and post-preparative stability was during storage for 12 h after sample preparation at 4 °C. The room temperature stability for stock solution was determined after storing the sample at 25 °C for 24 h. A series of concentrations of stability testing QC samples was gained by the calibration curve which was established from freshly prepared standard samples.

[2] = Pharmacokinetic study in beagle dogs after oral administration of C. bungeana extract (UHPLC-MS/MS of plasma); details: for AUC(0-inf) / AUC(0-t) / Cmax / Tmax / half-life: male, beagle, dog, plasma, po, 0.12 g/kg; for Shape of plasma concentration-time profile / Time of first peak of plasma concentration-time profile / Time of second peak of plasma concentration-time profile: beagle dog plasma; for Shape of plasma concentration-time profile: oral C. bungeana extract 0.12 g/kg; for Time of first peak of plasma concentration-time profile / Time of second peak of plasma concentration-time profile: oral C. bungeana extract, post-dose
Procedure: The developed UHPLC-MS/MS method was employed to determine the pharmacokinetics of the fourteen components in C. bungeana after a single oral administration of 0.12 g/kg (equivalent to 1180.8 µg/kg A, 100.8 µg/kg B, 172.8 µg/kg C, 194.4 µg/kg D, 147.6 µg/kg E, 291.6 µg/kg F, 7.2 µg/kg G, 64.8 µg/kg H, 10.8 µg/kg I, 435.6 µg/kg J, 7.2 µg/kg K, 2851.2 µg/kg L, 694.8 µg/kg M, 928.8µg/kg N) to six beagle dogs. […] According to the Meeh-Rubn method, we established a final oral dosage of 0.12 g/kg in dogs. The plasma concentrations of the fourteen components at each time point were detected and the data gained from six beagle dogs were averaged.
Before the experiment, the beagle dogs were fasted for 12 h but given water during the research period. Blood (300 µL) was collected from the forelimb vein plexus at a few specific time points (0.083, 0.25, 0.5, 0.75 and 1, 2, 3, 4, 6, 8, 12, 24 h) after the oral administration of the extract of C. bungeana (0.12 g/kg). After centrifugation at 13,000 rpm for 10 min, the plasma was collected immediately and maintained at −80 °C until sample analysis.
Using a liquid-liquid extraction method, 100 µL of methanol and 50 µL of IS (bifendate) were added to a beagle dog plasma sample (100 µL) followed by vortex for 30 s. Then 3 mL of aether was accurately added and the mixture was vortexed for 60 s. After this step, the samples were put into a centrifuge (XiangYi Technologies, Changsha, Hunan, China). The organic supernatant was pipetted into clean glass tubes individually after centrifugation 3800 rpm for 6 min. The upper organic layer was removed and evaporated to dryness at 40 °C under a stream of nitrogen. The residue was then redissolved with 100 µL of mobile phase (28% acetonitrile), vortexed for 30 s and filtered by a 0.22 µm membrane. A 10 µL aliquot of the solution was injected into the UHPLC-MS/MS system for analysis.
Concentrations of fourteen alkaloids in beagle dog blood were calculated employing the Excel program (Microsoft Corp., Redmond, WA, USA). Pharmacokinetic parameters were calculated using non-compartmental methods. The elimination rate constant (Ke) was calculated employing the linear regression of the terminal points in a semi-log plot of the plasma concentration against time. The elimination half-life (t1/2) was calculated using the formula. t1/2 = 0.693/Ke(1)
The area under the blood concentration versus time curve up to the last quantifiable time point (AUC0→t) was calculated by the linear trapezoidal rule. The area under the plasma concentration –time curve to time infinity (AUC0→∞) was calculated as follows: AUC0→∞ = AUC0→t + Ct/Ke(2)
The maximum observed blood concentration (Cmax) and the time to reach maximum observed blood concentration (Tmax) were obtained directly from the concentration-time curve.

[3] = Room temperature stability of stock solution; format: physicochemical; details: 25 °C for 24 h, n = 6
Procedure: as §1

| Compound | Stability (% RE) Long-Term ([1]; high QC in beagle plasma) [% RE] | Stability (% RE) Short-Term ([1]; high QC in beagle plasma) [% RE] | Stability (% RE) Freeze-Thaw ([1]; high QC in beagle plasma) [% RE] | Stability (% RE) Post-Preparative ([1]; high QC) [% RE] | Stability (% RE) Long-Term ([1]; low QC in beagle plasma) [% RE] | Stability (% RE) Short-Term ([1]; low QC in beagle plasma) [% RE] | Stability (% RE) Freeze-Thaw ([1]; low QC in beagle plasma) [% RE] | Stability (% RE) Post-Preparative ([1]; low QC) [% RE] | Stability (% RE) Long-Term ([1]; medium QC in beagle plasma) [% RE] | Stability (% RE) Short-Term ([1]; medium QC in beagle plasma) [% RE] | Stability (% RE) Freeze-Thaw ([1]; medium QC in beagle plasma) [% RE] | Stability (% RE) Post-Preparative ([1]; medium QC) [% RE] | AUC(0-inf) [2] [ng·h/mL] | AUC(0-t) [2] [ng·h/mL] | Cmax [2] [ng/mL] | Tmax [2] [h] | half-life [2] [h] | Stability (% RE) Room Temperature for Stock-Solution ([3]; high QC level) [% RE] | Stability (% RE) Room Temperature for Stock-Solution ([3]; low QC level) [% RE] | Stability (% RE) Room Temperature for Stock-Solution ([3]; medium QC level) [% RE] | also measured |
| --- | --- | --- | --- | --- | --- | --- | --- | --- | --- | --- | --- | --- | --- | --- | --- | --- | --- | --- | --- | --- | --- |
| COc1cc2c(cc1OC)[C@@H]1Cc3ccc(OC)c(OC)c3CN1CC2 [Terahydropalmatine, tetrahydropalmatine] | 10.23 | 5.15 | 10.09 | 8.76 | −5.67 | 9.24 | 11.34 | 10.82 | 11.88 | 3.11 | 12.23 | 8.29 | 622 ± 52.5 | 585 ± 59.9 | 205 ± 22.4 | 0.92 ± 0.13 | 5.58 ± 1.46 | 1.28 | 2.97 | 4.65 | – |
| COc1cc2c(cc1O)-c1cc3ccc(OC)c(OC)c3c[n+]1CC2 [Columbamine, columbamine] | 10.24 | 9.67 | 5.60 | 12.44 | 9.66 | 8.47 | 11.50 | 8.80 | 11.77 | 4.02 | 12.73 | 5.50 | 7030 ± 290 | 6830 ± 170 | 2130 ± 196 | 0.92 ± 0.13 | 2.87 ± 0.42 | 2.50 | 4.02 | 1.62 | Shape of plasma concentration-time profile [2]: conspicuous bimodal phenomenon; Time of first peak of plasma concentration-time profile [2]: 0.5 to 1 h; Time of second peak of plasma concentration-time profile [2]: 4 to 8 h |
| COc1ccc2cc3[n+](cc2c1OC)CCc1cc2c(cc1-3)OCO2 [Berberine, berberine] | 7.00 | 11.96 | 7.71 | 10.36 | 7.75 | 9.61 | 12.57 | 11.84 | 7.72 | 7.42 | 11.60 | 9.39 | 3770 ± 139 | 3690 ± 141 | 1370 ± 313 | 0.92 ± 0.13 | 2.49 ± 0.14 | −3.26 | 2.22 | 4.08 | Shape of plasma concentration-time profile [2]: conspicuous bimodal phenomenon; Time of first peak of plasma concentration-time profile [2]: 0.5 to 1 h; Time of second peak of plasma concentration-time profile [2]: 4 to 8 h |
| COc1cc2c(cc1O)CC[n+]1cc3c(OC)c(OC)ccc3cc1-2 [Jateorhizine, jateorhizine] | 8.26 | 6.64 | 6.24 | 8.41 | 12.90 | 7.31 | 10.65 | 6.63 | 10.30 | 3.05 | 8.68 | 8.51 | 163 ± 11 | 151 ± 6.42 | 74.2 ± 8.71 | – | 6.29 ± 1.09 | 1.32 | 1.16 | −3.58 | Shape of plasma concentration-time profile [2]: conspicuous bimodal phenomenon; Time of first peak of plasma concentration-time profile [2]: 0.5 to 1 h; Time of second peak of plasma concentration-time profile [2]: 4 to 8 h |
| COc1cc2c(cc1OC)-c1cc3ccc(OC)c(OC)c3c[n+]1CC2 [Palmatine, palmatine] | 11.04 | 6.73 | 8.37 | −7.08 | 7.79 | 9.42 | 10.26 | 6.92 | 10.77 | −6.30 | 8.08 | 9.22 | 9580 ± 596 | 8040 ± 459 | 1900 ± 84.9 | 0.96 ± 0.1 | 8.56 ± 1.29 | – | – | – | Shape of plasma concentration-time profile [2]: conspicuous bimodal phenomenon; Time of first peak of plasma concentration-time profile [2]: 0.5 to 1 h; Time of second peak of plasma concentration-time profile [2]: 4 to 8 h |

More lines, main results first:

| Stability (% RE) Long-Term ([1]; high QC in beagle plasma) [% RE] | Stability (% RE) Short-Term ([1]; high QC in beagle plasma) [% RE] | Stability (% RE) Freeze-Thaw ([1]; high QC in beagle plasma) [% RE] | Stability (% RE) Post-Preparative ([1]; high QC) [% RE] | Stability (% RE) Long-Term ([1]; low QC in beagle plasma) [% RE] | Stability (% RE) Short-Term ([1]; low QC in beagle plasma) [% RE] | Stability (% RE) Freeze-Thaw ([1]; low QC in beagle plasma) [% RE] | Stability (% RE) Post-Preparative ([1]; low QC) [% RE] | Stability (% RE) Long-Term ([1]; medium QC in beagle plasma) [% RE] | Stability (% RE) Short-Term ([1]; medium QC in beagle plasma) [% RE] | Stability (% RE) Freeze-Thaw ([1]; medium QC in beagle plasma) [% RE] | Stability (% RE) Post-Preparative ([1]; medium QC) [% RE] | AUC(0-inf) [2] [ng·h/mL] | AUC(0-t) [2] [ng·h/mL] | Cmax [2] [ng/mL] | Tmax [2] [h] | half-life [2] [h] | Stability (% RE) Room Temperature for Stock-Solution ([3]; high QC level) [% RE] | Stability (% RE) Room Temperature for Stock-Solution ([3]; low QC level) [% RE] | Stability (% RE) Room Temperature for Stock-Solution ([3]; medium QC level) [% RE] | Compound | also measured |
| --- | --- | --- | --- | --- | --- | --- | --- | --- | --- | --- | --- | --- | --- | --- | --- | --- | --- | --- | --- | --- | --- |
| 11.01 | 10.78 | 10.06 | 5.08 | 11.85 | 11.76 | 12.88 | 5.99 | 3.75 | 5.82 | 5.15 | 7.97 | 1200 ± 86.3 | 1160 ± 94.2 | 450 ± 61.6 | 0.96 ± 0.1 | 4.88 ± 1.72 | 3.65 | −2.05 | 1.25 | COc1ccc2cc3[n+](cc2c1O)CCc1cc2c(cc1-3)OCO2 [Berberrubine, berberrubine] | – |
| 7.32 | −4.81 | −4.20 | 2.05 | 8.62 | 6.47 | 5.17 | 12.65 | 7.56 | 6.74 | −3.75 | −3.44 | 244 ± 26.2 | 230 ± 18.6 | 107 ± 4.63 | 0.58 ± 0.13 | 5.52 ± 0.93 | 3.69 | −1.83 | 2.57 | CC(=O)O[C@H]1Cc2cc3c(cc2[C@H]2N(C)Cc4c(ccc5c4OCO5)[C@@]12C)OCO3 [Acetylcorynoline, acetylcorynoline] | – |
| 3.13 | −2.89 | −3.58 | 10.60 | 3.08 | 1.62 | 1.18 | 3.71 | 5.35 | −3.92 | 9.69 | 10.01 | 284 ± 62.4 | 260 ± 64.2 | 94.5 ± 22.8 | 0.92 ± 0.13 | 6.98 ± 1.76 | 2.30 | −4.08 | 3.77 | CN1C(=O)c2c(ccc3c2OCO3)C2(C)C(O)Cc3cc4c(cc3C12)OCO4 (centres unmarked) [8-oxocorynoline] | – |
| 9.74 | 6.81 | 7.95 | 5.40 | 13.95 | −2.63 | 6.11 | 7.14 | 6.81 | 9.25 | 6.78 | −2.98 | 755 ± 58.9 | 734 ± 57.5 | 224 ± 15.3 | 0.96 ± 0.1 | 4.25 ± 0.81 | – | – | – | CN1Cc2c(ccc3c2OCO3)[C@@]2(C)[C@@H](O)Cc3cc4c(cc3[C@@H]12)OCO4 [Corynoline, corynoline] | Shape of plasma concentration-time profile [2]: conspicuous bimodal phenomenon; Time of first peak of plasma concentration-time profile [2]: 0.5 to 1 h; Time of second peak of plasma concentration-time profile [2]: 4 to 8 h |
